In patent US20240317683A1, “METHODS OF TREATING MOOD DISORDERS” (priority 2020, published 2024):
Where a name gives a salt, the structure may show the parent alone. Read-outs that look alike come from different tables or passages of the source.

Columns and labels:
[1] = biological target: serotonin transporter (SERT) (Homo sapiens (Human), UniProt P31645); experiment: SERT fluorescent substrate uptake inhibition in transfected HEK293 cells; format: cell-based; details: HEK293 cells expressing SERT
Procedure: SERT Uptake Inhibition. The ability of test compounds to block monoamine uptake by SERT was determined using the Neurotransmitter Transporter Uptake Assay Kit manufactured by Molecular Devices (Cat #R8173). Briefly, stably transfected HEK293 cells expressing SERT were grown and plated into 384-well plates at a concentration of 20,000 cells per well. Plates were then incubated for 16-20 h at 37° C. and 5% CO2. The medium was then aspirated and replaced with 25 μL of assay buffer (20 mM HEPES in HBSS, containing 0.1% BSA) containing the test compounds at the appropriate concentrations. Plates were then centrifuged at 300 rpm for 15 s and then incubated at 37° C. for 30 minutes. At this time, 25 μL of the proprietary fluorescent dye solution was added, the plates were incubated at 37°° C. for 60 minutes, and then fluorescence was quantified on a plate reader (excitation wavelength =440 nm, emission wavelength=520 nm). The proprietary dye solution contains a mixture of 1) a fluorescent dye (dye 1) that mimics the endogenous substrate of SERT and is thereby actively transported to the intracellular compartment in the absence of an inhibitor and 2) a masking dye that inhibits the fluorescence of dye 1 in the extracellular compartment. Therefore, the overall fluorescence of the system increases as the fluorescent dye is transported into the cells.

[2] = Metabolic stability in human liver microsomes (HLM); format: in vitro ADME; details: both sexes, pooled human liver microsomes, pH 7.4, NADPH
Procedure: HLM Stability. Pooled HLM from adult male and female donors (Corning 452117) were used. Microsomal incubations were carried out in multi-well plates. […] Control incubations were performed by replacing the NADPH-cofactor system with PBS. Test compounds (1 μM, final solvent concentration 1.0%) were incubated with microsomes at 37° C. with constant shaking. Six time points over 60 minutes were analyzed, with 60 μL aliquots of the reaction mixture being drawn at each time point.

[3] = Metabolic stability in mouse liver microsomes (MLM); format: in vitro ADME, CD-1 mice; details: CD-1, mouse, pooled mouse liver microsomes, pH 7.4, NADPH
Procedure: MLM Stability. Pooled MLM from CD-1 mice (BIOIVT M00501) were used. Microsomal incubations were carried out in multi-well plates. […] Control incubations were performed by replacing the NADPH-cofactor system with PBS. Test compounds (1 μM, final solvent concentration 1.0%) were incubated with microsomes at 37° C. with constant shaking. Six time points over 60 minutes were analyzed, with 60 μL aliquots of the reaction mixture being drawn at each time point.

[4] = biological target: 5-HT2B (Homo sapiens (Human), UniProt P41595); experiment: FLIPR Ca2+ flux agonist assay, 5-HT2B; format: cell-based
Procedure: A solution of 250 mM probenecid in 1 mL FLIPR assay buffer was prepared fresh. This was combined with a fluorescent dye (Fluo-4 Direct™) to make a final assay concentration of 2.5 mM. […] The fluorescent dye was then added to the assay plate along with assay buffer to a final volume of 40 μL. The cell plate was incubated for 50 min at 37° C. and 5% CO2 and placed into the FLIPR Tetra along with the compound plate. 10 μL of references and compounds were then transferred from the compound plate into the cell plate and the fluorescent signal was read.

[5] = Pharmacokinetics in mice, brain; format: in vivo, C57BL/6 mice; details: for half-life / Cmax / Tmax: male, C57BL/6; for half-life / Cmax / Tmax / AUC0-last: mouse brain; for F: mouse, based on brain AUC0-last
Procedure: Animals. Male C57BL/6 mice, aged 8-12 weeks, were used in these studies. Four mice were housed in each cage. Temperature and humidity were maintained at 22±3° C. and 30-70%, respectively, and illumination was controlled to give a 12 h light and 12 h dark cycle. Temperature and humidity were recorded by an auto-controlled data logger system. All animals were provided laboratory rodent diet. Reverse osmosis water treated with ultraviolet light was provided ad libitum. Animals were randomly assigned to treatment groups.
Drugs. Compounds 4 and 5 were prepared as described above. All other compounds were commercially obtained. Test compounds were used as the hydrogen fumarate (1 and 2) or hydrochloride (3, 4, and 5) salts and were dissolved in a vehicle consisting of normal saline. They were then administered intravenously (IV) via the tail vein, subcutaneously (SC), or orally (PO) via gavage at a dose of 1 or 10 mg/kg (calculated based on the free base) and at a volume of 5 ml/kg body weight.
Sample Collection and Bioanalysis. Blood samples (approximately 60 μL) were collected under light isoflurane anesthesia (Surgivet®) from the retro orbital plexus at 0.08, 0.25, 0.5, 1, 2, 4, 8, and 24 h (4 animals per time point). Immediately after blood collection, plasma was harvested by centrifugation at 4,000 rpm for 10 min at 4° C. and samples were stored at −70±10° C. until bioanalysis. Following blood collection, animals were immediately sacrificed, the abdominal vena-cava was cut open, and the whole body was perfused from the heart using 10 mL of normal saline, and brain samples were collected from all animals. After isolation, brain samples were rinsed three times in ice-cold normal saline (for 5-10 seconds/rinse using ˜5-10 mL normal saline in disposable petri dish for each rinse) and dried on blotting paper. Brain samples were homogenized using ice-cold phosphate-buffered saline (pH 7.4). Total homogenate volume was three times the tissue weight. All homogenates were stored at −70±10° C. until bioanalysis. For bioanalysis, 25 μL aliquots of plasma/brain study samples or spiked plasma/brain calibration standards were added to individual pre-labeled micro-centrifuge tubes followed by 100 μL of an internal standard solution (glipizide, 500 ng/ml in acetonitrile) except for blanks, where 100 μL of acetonitrile was added. Samples were vortexed for 5 minutes and then centrifuged for 10 minutes at 4,000 rpm at 4° C. Following centrifugation, 100 μL of each clear supernatant was transferred to a 96 well plate and analyzed with a fit-for-purpose LC-MS/MS method, with authentic samples of each analyte used for calibration and identification.
Data Analysis. Pharmacokinetic parameters were estimated using the non-compartmental analysis tool of Phoenix® WinNonlin software (Ver 8.0).

5-HT2B, sequence (P41595 whole entry, looked up, species assumed): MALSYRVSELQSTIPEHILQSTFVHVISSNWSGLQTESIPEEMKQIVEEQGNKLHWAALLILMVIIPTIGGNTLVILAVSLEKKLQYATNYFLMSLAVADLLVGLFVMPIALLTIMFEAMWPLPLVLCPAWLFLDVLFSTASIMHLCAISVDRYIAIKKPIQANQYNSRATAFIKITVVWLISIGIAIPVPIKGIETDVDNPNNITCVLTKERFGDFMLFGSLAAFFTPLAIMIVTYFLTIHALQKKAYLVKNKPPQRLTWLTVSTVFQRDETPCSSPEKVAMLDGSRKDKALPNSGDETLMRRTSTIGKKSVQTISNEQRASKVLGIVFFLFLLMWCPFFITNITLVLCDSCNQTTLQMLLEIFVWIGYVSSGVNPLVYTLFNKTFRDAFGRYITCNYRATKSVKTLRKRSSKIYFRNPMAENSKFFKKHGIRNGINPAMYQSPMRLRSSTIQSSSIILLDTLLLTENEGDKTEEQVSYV

Q: With `CCN(C)CCc1c[nH]c2ccc(F)cc12` [Compound 4, N-ethyl-2-(5-fluoro-1H-indol-3-yl)-N-methylethan-1-amine hydrochloride] as the molecule, how does the IC50 [1] read?
A: Its IC50 is 419 nM.

Q: And the “SERT % Inhibition @ Max Dose” value [1]?
A: Its value is 77.45%.

Q: What about the half-life at 1 μM [2] of the same molecule?
A: The half-life at 1 μM was 47.9 min.

Q: And the microsomal CLint at 1 μM [2]?
A: The microsomal CLint at 1 μM was 28.9 µL/min/mg.

Q: And the half-life at 1 μM [3]?
A: The half-life at 1 μM was 47.6 min.

Q: What about the microsomal CLint at 1 μM [3] of the same molecule?
A: The microsomal CLint at 1 μM was 29.1 µL/min/mg.

Q: What about the EC50 [4] of the same molecule?
A: Its EC50 is over 10000 nM.

Q: What about the “5-HT2B % Act @ Max Dose” value ([4]; Ca2+ flux, HEK293) of the same molecule?
A: Its value is 0.79%.

Q: And the half-life ([5]; IV, 10 mg/kg)?
A: The half-life was 56.4 min.

Q: And the Cmax ([5]; IV, 10 mg/kg, read-out: Cmax (C0 back-extrapolated to t = 0))?
A: Its Cmax is 7980 ng/g.

Q: What about the Tmax ([5]; SC, 1 mg/kg) of the same molecule?
A: The Tmax was 15 min.

Q: What about the half-life ([5]; SC, 1 mg/kg) of the same molecule?
A: The half-life was 22.2 min.

Q: And the Cmax ([5]; SC, 1 mg/kg, read-out: Cmax)?
A: The Cmax was 461 ng/g.

Q: What about the Tmax ([5]; SC, 10 mg/kg) of the same molecule?
A: The Tmax was 60 min.

Q: What about the half-life ([5]; SC, 10 mg/kg) of the same molecule?
A: The half-life was 49.2 min.

Q: What about the Cmax ([5]; SC, 10 mg/kg, read-out: Cmax) of the same molecule?
A: Its Cmax is 3510 ng/g.

Q: And the Tmax ([5]; oral, 10 mg/kg)?
A: The Tmax was 15 min.

Q: What about the half-life ([5]; oral, 10 mg/kg) of the same molecule?
A: The half-life was 79.2 min.

Q: And the Cmax ([5]; oral, 10 mg/kg, read-out: Cmax)?
A: The Cmax was 1400 ng/g.

Q: What about the AUC0-last ([5]; IV, 10 mg/kg) of the same molecule?
A: The AUC0-last was 10,471.19 h*ng/g.

Q: And the AUC0-last ([5]; SC, 1 mg/kg)?
A: Its AUC0-last is 320.97 ng·h/g.

Q: What about the AUC0-last ([5]; SC, 10 mg/kg) of the same molecule?
A: The AUC0-last was 6,672.16 h*ng/g.

Q: And the AUC0-last ([5]; oral, 10 mg/kg)?
A: Its AUC0-last is 3,835.86 h*ng/g.

Q: What about the F ([5]; SC, 1 mg/kg) of the same molecule?
A: Its F is 31%.

Q: What about the F ([5]; SC, 10 mg/kg) of the same molecule?
A: The F was 64%.

Q: And the F ([5]; oral, 10 mg/kg)?
A: Its F is 37%.
